# Patent US10787452B2 (Vertex Pharmaceuticals Incorporated, priority 2012, dated 2020)
# Tested on: HCT116 colorectal cancer cells
# Experiment: Cisplatin sensitization assay (96 h cell viability MTS);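 further: compound concentration needed to lower the Cisplatin-alone IC50 by a set fold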
# Assay type: cell-based
# Conditions: 96 h MTS, compound plus Cisplatin
# Outline: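 Cisplatin and compound are dosed at the same time, both serially diluted 2-fold from 10 μM final across a full matrix. Plates sit at 37° C in 5% CO2 for 96 h before MTS addition.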
row,Compound,Cisplatin Sensitization Assay
1,"CC1(N2CCN(C(=O)C3CCN(c4c(F)cncc4NC(=O)c4c(N)nn5cc(F)cnc45)CC3)CC2)COC1 [I-G-92, 2-amino-6-fluoro-N-(5-fluoro-4-(4-(4-(3-methyloxetan-3-yl)piperazine-1-carbonyl)piperidin-1-yl)pyridin-3-yl)pyrazolo[1,5-a]pyrimidine-3-carboxamide]",+++ (Compounds with a Cisplatin sensitization value of <0.02 μM are marked with “+++.”)
2,"CO[C@H]1CCN(C(=O)C2CCN(c3ccncc3NC(=O)c3c(N)nn4cc(F)cnc34)CC2)C1 [I-G-94, (S)-2-amino-6-fluoro-N-(4-(4-(3-methoxypyrrolidine-1-carbonyl)piperidin-1-yl)pyridin-3-yl)pyrazolo[1,5-a]pyrimidine-3-carboxamide]",+++ (Compounds with a Cisplatin sensitization value of <0.02 μM are marked with “+++.”)
3,"C[N+]1([O-])CCN(C(=O)C2CCN(c3c(F)cncc3NC(=O)c3c(N)nn4cc(F)cnc34)CC2)CC1 [I-G-95, 4-(1-(3-(2-amino-6-fluoropyrazolo[1,5-a]pyrimidine-3-carboxamido)-5-fluoropyridin-4-yl)piperidine-4-carbonyl)-1-methylpiperazine 1-oxide]",+++ (Compounds with a Cisplatin sensitization value of <0.02 μM are marked with “+++.”)
4,"CN1CC(N2CCN(C(=O)C3CCN(c4c(F)cncc4NC(=O)c4c(N)nn5cc(F)cnc45)CC3)CC2)C1 [I-G-96, 2-amino-6-fluoro-N-(5-fluoro-4-(4-(4-(1-methylazetidin-3-yl)piperazine-1-carbonyl)piperidin-1-yl)pyridin-3-yl)pyrazolo[1,5-a]pyrimidine-3-carboxamide]",+++ (Compounds with a Cisplatin sensitization value of <0.02 μM are marked with “+++.”)
5,"COCC1CN(C(=O)C2CCN(c3c(F)cncc3NC(=O)c3c(N)nn4cc(F)cnc34)CC2)C1 [I-G-98, 2-amino-6-fluoro-N-(5-fluoro-4-(4-(3-(methoxymethyl)azetidine-1-carbonyl)piperidin-1-yl)pyridin-3-yl)pyrazolo[1,5-a]pyrimidine-3-carboxamide]",+++ (Compounds with a Cisplatin sensitization value of <0.02 μM are marked with “+++.”)
6,"CO[C@H]1CCN(C(=O)C2CCN(c3c(F)cncc3NC(=O)c3c(N)nn4cc(F)cnc34)CC2)C1 [I-G-99, (S)-2-amino-6-fluoro-N-(5-fluoro-4-(4-(3-methoxypyrrolidine-1-carbonyl)piperidin-1-yl)pyridin-3-yl)pyrazolo[1,5-a]pyrimidine-3-carboxamide]",+++ (Compounds with a Cisplatin sensitization value of <0.02 μM are marked with “+++.”)
7,"Nc1nn2cc(F)cnc2c1C(=O)Nc1cnccc1N1CCN(C2COC2)CC1 [I-N-1, 2-amino-6-fluoro-N-(4-(4-(oxetan-3-yl)piperazin-1-yl)pyridin-3-yl)pyrazolo[1,5-a]pyrimidine-3-carboxamide]",++ (Compounds with a Cisplatin sensitization value >0.02 μM but <0.2 μM are marked with “++.”)
8,"N#CCc1cnc2c(C(=O)Nc3cnccc3N3CCC(N)CC3)c(N)nn2c1 [I-N-2, 2-amino-N-(4-(4-aminopiperidin-1-yl)pyridin-3-yl)-6-(cyanomethyl)pyrazolo[1,5-a]pyrimidine-3-carboxamide]",+++ (Compounds with a Cisplatin sensitization value of <0.02 μM are marked with “+++.”)
9,"CN1CCN(c2ccncc2NC(=O)c2c(N)nn3cc(F)cnc23)CC1 [I-N-3, 2-amino-6-fluoro-N-(4-(4-methylpiperazin-1-yl)pyridin-3-yl)pyrazolo[1,5-a]pyrimidine-3-carboxamide]",+++ (Compounds with a Cisplatin sensitization value of <0.02 μM are marked with “+++.”)
10,"CC(C)N1CCN(c2ccncc2NC(=O)c2c(N)nn3cc(F)cnc23)CC1 [I-N-4, 2-amino-6-fluoro-N-(4-(4-isopropylpiperazin-1-yl)pyridin-3-yl)pyrazolo[1,5-a]pyrimidine-3-carboxamide]",+++ (Compounds with a Cisplatin sensitization value of <0.02 μM are marked with “+++.”)
11,"CN1CCN(c2c(NC(=O)c3c(N)nn4cc(F)cnc34)cncc2C2CC2)CC1 [I-N-5, 2-amino-N-(5-cyclopropyl-4-(4-methylpiperazin-1-yl)pyridin-3-yl)-6-fluoropyrazolo[1,5-a]pyrimidine-3-carboxamide]",++ (Compounds with a Cisplatin sensitization value >0.02 μM but <0.2 μM are marked with “++.”)
12,"Nc1nn2cc(F)cnc2c1C(=O)Nc1cnccc1-n1ccnc1 [I-N-7, N-(4-(1H-imidazol-1-yl)pyridin-3-yl)-2-amino-6-fluoropyrazolo[1,5-a]pyrimidine-3-carboxamide]",++ (Compounds with a Cisplatin sensitization value >0.02 μM but <0.2 μM are marked with “++.”)
13,"CNCCc1cnn(-c2ccncc2NC(=O)c2c(N)nn3cc(F)cnc23)c1 [I-N-8, 2-amino-6-fluoro-N-(4-(4-(2-(methylamino)ethyl)-1H-pyrazol-1-yl)pyridin-3-yl)pyrazolo[1,5-a]pyrimidine-3-carboxamide]",+ (Compounds with a Cisplatin sensitization value >0.2 μM but <5 μM are marked with “+.”)
14,"CN(C)CCc1cnn(-c2ccncc2NC(=O)c2c(N)nn3cc(F)cnc23)c1 [I-N-9, 2-amino-N-(4-(4-(2-(dimethylamino)ethyl)-1H-pyrazol-1-yl)pyridin-3-yl)-6-fluoropyrazolo[1,5-a]pyrimidine-3-carboxamide]",+ (Compounds with a Cisplatin sensitization value >0.2 μM but <5 μM are marked with “+.”)
15,"Nc1nn2cc(F)cnc2c1C(=O)Nc1cnccc1N1CCN([C@@H]2CCOC2)CC1 [I-N-10, (R)-2-amino-6-fluoro-N-(4-(4-(tetrahydrofuran-3-yl)piperazin-1-yl)pyridin-3-yl)pyrazolo[1,5-a]pyrimidine-3-carboxamide]",++ (Compounds with a Cisplatin sensitization value >0.02 μM but <0.2 μM are marked with “++.”)
16,"Nc1nn2cc(F)cnc2c1C(=O)Nc1cnccc1N1CCN(C2CCOCC2)CC1 [I-N-11, 2-amino-6-fluoro-N-(4-(4-(tetrahydro-2H-pyran-4-yl)piperazin-1-yl)pyridin-3-yl)pyrazolo[1,5-a]pyrimidine-3-carboxamide]",++ (Compounds with a Cisplatin sensitization value >0.02 μM but <0.2 μM are marked with “++.”)
17,"Nc1nn2cc(F)cnc2c1C(=O)Nc1cncc(F)c1N1CCN(C2COC2)CC1 [I-N-13, 2-amino-6-fluoro-N-(5-fluoro-4-(4-(oxetan-3-yl)piperazin-1-yl)pyridin-3-yl)pyrazolo[1,5-a]pyrimidine-3-carboxamide]",+++ (Compounds with a Cisplatin sensitization value of <0.02 μM are marked with “+++.”)
18,"CN1CCN(c2c(F)cncc2NC(=O)c2c(N)nn3cc(Cl)cnc23)CC1 [I-N-14, 2-amino-6-chloro-N-(5-fluoro-4-(4-methylpiperazin-1-yl)pyridin-3-yl)pyrazolo[1,5-a]pyrimidine-3-carboxamide]",+++ (Compounds with a Cisplatin sensitization value of <0.02 μM are marked with “+++.”)
